Assays:
Assay type in all cases: physicochemical
[1] = Influencing-factor stability of I and IV crystal forms, purity by HPLC (Thermo Ultimate3000DAD); settings: for crystal stability (in words): conditions of light, high temperature, and high humidity
Excerpt: (§1) The stability of the I and IV crystal form of the compound represented by formula (I) was investigated. The purity of the crystal forms was detected by Thermo Ultimate3000DAD high-performance liquid chromatography system, and Waters symmetry C18, (250*4.6 mm, 5 μm) was used as the detection chromatographic column, mobile phase: sodium dihydrogen phosphate/ACN/H2O, detection wavelength: 261 nm.

[2] = Solid properties / fluidity of crystal form
[3] = Influencing-factor stability of I crystal form and amorphous form, purity by HPLC (Agilent1200 DAD); settings: for stability after long-term storage (in words): high temperature, high humidity
Excerpt: as §1, with “I” for “I and IV”, “form” for “forms”, “Agilent1200 DAD high performance” for “Thermo Ultimate3000DAD high-performance”, “detection” for “detection chromatographic”

| SMILES | purity % ([1]; 40° C., day 0) | purity % ([1]; 40° C., day 5) | purity % ([1]; 40° C., day 10) | purity % ([1]; 40° C., day 30) | purity % ([1]; 60° C., day 0) | purity % ([1]; 60° C., day 5) | purity % ([1]; 60° C., day 10) | purity % ([1]; 60° C., day 30) | purity % ([1]; RH 75%, day 0) | purity % ([1]; RH 75%, day 5) | purity % ([1]; RH 75%, day 10) | purity % ([1]; RH 75%, day 30) | purity % ([1]; RH 90%, day 0) | purity % ([1]; RH 90%, day 5) | purity % ([1]; RH 90%, day 10) | purity % ([1]; RH 90%, day 30) | crystal stability (in words) [1] | purity % ([1]; illumination, day 0) | purity % ([1]; illumination, day 5) | purity % ([1]; illumination, day 10) | further results |
| --- | --- | --- | --- | --- | --- | --- | --- | --- | --- | --- | --- | --- | --- | --- | --- | --- | --- | --- | --- | --- | --- |
| CCOc1cc2ncc(C#N)c(Nc3ccc(OCc4ccccn4)c(Cl)c3)c2cc1NC(=O)/C=C/[C@H]1CCCN1C.O=C(O)/C=C\C(=O)O [IV crystal form] | 99.94% | 99.92% | 99.93% | 99.85% | 99.94% | 99.83% | 99.77% | 99.50% | 99.94% | 99.93% | 99.94% | 99.94% | 99.94% | 99.93% | 99.94% | 99.93% | good crystal stability | 99.94% | 99.92% | 99.92% | purity % ([1]; illumination, day 30): 99.85% |
| CCOc1cc2ncc(C#N)c(Nc3ccc(OCc4ccccn4)c(Cl)c3)c2cc1NC(=O)/C=C/[C@H]1CCCN1C.O=C(O)/C=C\C(=O)O [II crystal form] |  |  |  |  |  |  |  |  |  |  |  |  |  |  |  |  |  |  |  |  | fluidity [2]: poor |
| CCOc1cc2ncc(C#N)c(Nc3ccc(OCc4ccccn4)c(Cl)c3)c2cc1NC(=O)/C=C/[C@H]1CCCN1C.O=C(O)/C=C\C(=O)O [I crystal form] | 99.83% | 99.78% | 99.77% | 99.69% | 99.83% | 99.64% | 99.51% | 99.24% | 99.83% | 99.81% | 99.81% | 99.68% | 99.83% | 99.81% | 99.82% | 99.82% | good crystal stability | 99.83% | 99.68% | 99.59% | purity % ([3]; 40° C., day 0): 99.56%; purity % ([3]; 40° C., day 5): 99.55%; purity % ([3]; 40° C., day 10): 99.51%; purity % ([3]; 40° C., day 30): 99.43%; purity % ([3]; RH 75%, day 0): 99.56%; purity % ([3]; RH 75%, day 5): 99.53%; purity % ([3]; RH 75%, day 10): 99.53%; purity % ([3]; RH 75%, day 30): 99.52%; purity % ([3]; RH 90%, day 0): 99.56%; purity % ([3]; RH 90%, day 5): 99.53%; purity % ([3]; RH 90%, day 10): 99.54%; purity % ([3]; RH 90%, day 30): 99.51%; purity % ([3]; illumination, day 0): 99.56%; purity % ([3]; illumination, day 5): 99.35%; purity % ([3]; illumination, day 10): 99.29%; purity % ([3]; illumination, day 30): 99.00%; stability after long-term storage (in words) ([3]; illumination): good physical and chemical stability; purity % ([1]; illumination, day 30): 99.29% |
| CCOc1cc2ncc(C#N)c(Nc3ccc(OCc4ccccn4)c(Cl)c3)c2cc1NC(=O)/C=C/[C@H]1CCCN1C.O=C(O)/C=C\C(=O)O [amorphous, reference compound] |  |  |  |  |  |  |  |  |  |  |  |  |  |  |  |  |  |  |  |  | purity % ([3]; 40° C., day 0): 99.31%; purity % ([3]; 40° C., day 5): 99.21%; purity % ([3]; 40° C., day 10): 99.13%; purity % ([3]; 40° C., day 30): 98.57%; purity % ([3]; RH 75%, day 0): 99.31%; purity % ([3]; RH 75%, day 5): 99.35%; purity % ([3]; RH 75%, day 10): 99.33%; purity % ([3]; RH 75%, day 30): 99.09%; purity % ([3]; RH 90%, day 0): 99.31%; purity % ([3]; RH 90%, day 5): 95.76%; purity % ([3]; RH 90%, day 10): 94.05%; purity % ([3]; RH 90%, day 30): 85.09%; purity % ([3]; illumination, day 0): 99.31%; purity % ([3]; illumination, day 5): 98.04%; purity % ([3]; illumination, day 10): 96.65%; purity % ([3]; illumination, day 30): 93.48%; stability after long-term storage (in words) ([3]; illumination, listed as amorphous form): poor stability |
